Here are results for 62 molecules from PubChem BioAssay AID489022 (Sanford-Burnham Center for Chemical Genomics, 2010).

Structures are written as SMILES. Activity calls are given as the source filed them. No rule for the calls is given here. Bounds are passed on as bounds.

The assay deals with HEK-293T NF-kB luciferase reporter, luminescence counterscreen. The assay is described as follows: NF-kB reporter suppression in HEK-293T cells – luminescence, B-cell screen hits, counter-screen for BCR NF-kB inhibitor project, dose response (AID 489022).
`CCn1c(=O)cc(SCC(=O)N2CCC3(CC2)OCCO3)c2ccccc21`: the IC50 – broadly, the concentration that gives 50% inhibition – is > 80 µM (inactive). The figure for `Cc1ccc(C(=O)N2CCCC(c3ccc(Cl)cc3)=N2)cc1` is 36.5 µM (inactive); for `COc1ccc(-c2ccc(C(C)=O)cc2)cc1[C@H]1[C@H]2C=CC[C@@H](C)[C@@H]2C(=O)N1Cc1ccccc1` it is 14.2 µM; for `CCN1C(=O)c2cccc3c(S(=O)(=O)Nc4ccccc4)ccc1c23` it is 18.7 µM. Turning to `CCc1ccc(/C=C2\SC(=S)N(CCCC(=O)Nc3ccccn3)C2=O)cc1`, the IC50 was > 80 µM (inactive). For the molecule `Cn1cnc([N+](=O)[O-])c1Sc1ccc([N+](=O)[O-])cc1`, the IC50 is > 80 µM (inactive). Consider `O=C(CN1C(=O)c2ccccc2S1(=O)=O)c1ccccc1Cl`, for which the half-maximal inhibitory concentration (IC50) was 7 µM. The figure for `CC(C)(C)c1ccc(-c2nnc(SCC(=O)NC3CC3)o2)cc1` is 63.1 µM (inactive); for `CCSc1ncc(Cl)c(C(=O)Nc2sc3c(c2C(=O)NCc2cccnc2)CCCC3)n1` it is > 80 µM (inactive); for `CCN(CC)c1ccc2cc(NC(=O)CCC(=O)O)c(=O)oc2c1` it is 1.38 µM. The figure for `N=c1c(C(=O)NC2CCCC2)cc2c(=O)n3ccccc3nc2n1CCN1CCOCC1` is > 80 µM (inactive); for `Cc1ccc(C)c(OCc2ccc(C(=O)NN)o2)c1` it is > 80 µM (inactive); for `COc1ccc(NC(=O)c2cc3c(Cl)nc4ccccc4c3s2)cc1OC` it is > 80 µM (inactive). The figure for `COc1ccc(-c2noc(N3CCC(C(=O)Nc4ccc(F)cc4F)CC3)n2)cc1` is > 80 µM (inactive); for `CC1CC(C)CN(S(=O)(=O)c2ccc(C(=O)NCCCn3ccnc3)cc2)C1` (configuration not stated) it is > 80 µM (inactive). Regarding `O=C(Nc1cccc(Oc2ccc3c(c2)C(=O)NC3=O)c1)c1cccs1`, the IC50 was 28.8 µM (inactive). Regarding `Cn1c(=O)c2c(SCC(=O)Nc3ccccc3F)nc(-c3ccccc3F)nc2n(C)c1=O`, the IC50 is > 80 µM (inactive).

For the molecule `Cc1cc(C)cc(NC(=O)c2nnn(Cc3cc(C)ccc3C)c2N)c1`, the half-inhibitory concentration (IC50) was 4.79 µM. The figure for `COc1cc(OC)cc(-c2cc3nc(C)c(CCC(=O)Nc4nc(C)cs4)c(C)n3n2)c1` is > 80 µM (inactive).

With `CCCCCC/C=C/c1ccc(OC)c([C@H]2[C@H]3C=CC[C@@H](C)[C@@H]3C(=O)N2Cc2ccccc2)c1`, the IC50 is > 80 µM (inactive).

For the molecule `N=c1c2c(n(Cc3cccc(Cl)c3)c3c1CCC3)CCCC2`, the IC50 was 3.77 µM. Take `COc1ccc(/C=C2\SC(=S)N(CCC(=O)Nc3ccc(C(=O)O)cc3)C2=O)cc1`: the IC50 is > 80 µM (inactive). As for `c1ccc(CCNc2ncnc3ccccc23)cc1`, the IC50 was 0.45 µM. For `CCc1cccc(NC(=O)c2ccc(CNc3c(N4CCCC4)c(=O)c3=O)cc2)c1`, the IC50 is > 80 µM (inactive).

Regarding `N=c1c2c(n(Cc3ccc(Cl)c(Cl)c3)c3c1CCC3)CCCC2`, the IC50 was 2.35 µM. For `Nc1ccccc1SCC(=O)Nc1nc(-c2ccccc2)cs1`, the IC50 is 11.8 µM. The figure for `O=C(NNC(=O)C12CC3CC(CC(C3)C1)C2)c1cccc(O)c1` is > 80 µM (inactive). The figure for `Cc1cc(C)nc(Sc2ccc([N+](=O)[O-])cc2[N+](=O)[O-])n1` is > 80 µM (inactive); for `O=C(O)CCSc1nc2ccccc2s1` it is 2.07 µM. The figure for `COc1ccc(/C=C2/SC(=S)N(CCCC(=O)Nc3ccc(O)cc3)C2=O)cc1OC` is > 80 µM (inactive); for `CCC(=O)N1c2ccccc2[C@@H](N(C(C)=O)c2ccccc2)C[C@H]1C` it is 39.2 µM (inactive).

`Cc1ccc(C(=O)CSc2nnc(COc3cccc(C)c3)o2)cc1`: the IC50 was 21.6 µM (inactive). The figure for `COc1ccc(C(=O)Nc2ccc(OC)c([N+](=O)[O-])c2)cc1Br` is > 80 µM (inactive); for `COc1ccc(OC)c(C2CC(=O)Nc3cc(OC)c(OC)c(OC)c32)c1` (configuration not stated) it is > 80 µM (inactive). The figure for `O=C(CCCN1C(=O)S/C(=C\c2ccccc2)C1=O)NNC(=O)c1ccccc1O` is 1.64 µM; for `CCOC(=O)c1sc(NC(=O)c2cc(-c3ccccc3C)nc3ccccc23)c(C#N)c1C` it is 0.29 µM; for `CCN(CC(=O)Nc1c(F)cccc1F)C(=O)c1cc([N+](=O)[O-])ccc1N1CCCCC1` it is > 80 µM (inactive).

With `Cc1nc2cc(-c3ccc(Cl)cc3)nn2c(C)c1CCC(=O)NC(C)c1ccc2c(c1)OCCO2` (configuration not stated), the IC50 is 11.5 µM. The figure for `CCCOc1ccc(NC(=O)C(=O)NCCCn2ccnc2)cc1` is > 80 µM (inactive).

In the case of `CC(C)C(=O)Nc1ccc(NC(=O)c2ccc3c(c2)OCO3)cc1`, the IC50 is > 80 µM (inactive). The figure for `COc1ccc2nc(Sc3c([N+](=O)[O-])nc(C)n3Cc3ccccc3)[nH]c2c1` is 55.4 µM (inactive); for `CCOC(=O)C1CCN(c2ncnc3c2cnn3-c2ccc(OC)cc2)CC1` it is 18.4 µM; for `COc1cc(OC)cc(-c2cc3nc(C)c(CCC(=O)NCc4ccccc4)c(C)n3n2)c1` it is 10.5 µM. The figure for `CCC(=O)N(C1=C(NC)C(=O)c2ccccc2C1=O)C(C)C` is > 80 µM (inactive); for `COc1ccc(/C=C2\SC(=S)N(CCC(=O)Nc3ccc(O)cc3)C2=O)cc1` it is > 80 µM (inactive). The figure for `COc1ccc(/C=N\NC(=O)c2sccc2C)cc1Cn1nc(C)cc1C` is 25.4 µM (inactive). On to `Cc1cc(C)cc(OCc2nnc(SCC(=O)c3ccccc3)o2)c1`, for which the IC50 was 23.7 µM (inactive).

As to `Cc1ccc(-c2nsc3c(N4CCC(C(N)=O)CC4)ncnc23)cc1`, the IC50 was > 80 µM (inactive).

With `CCn1c(=O)c2cc(C(=O)NCc3cccs3)sc2c2ccccc21`, the IC50 is > 80 µM (inactive). The figure for `O=C(Nc1nc2c(Br)cc(Br)cc2c(=O)s1)c1ccco1` is > 80 µM (inactive). The figure for `COc1ccc(OCc2cccc(C(=O)Nc3cc(C)on3)c2)cc1` is 50.6 µM (inactive). The figure for `CCc1sc(C(=O)Nc2cccc(-n3cnnn3)c2)cc1C` is > 80 µM (inactive). Regarding `CC1Cc2ccccc2N1S(=O)(=O)c1cnc(Cl)c(Cl)c1` (configuration not stated), the IC50 is 77.8 µM (inactive). The figure for `CCc1ccc(/C=C2\SC(=S)N(CCC(=O)Nc3cc(C)on3)C2=O)cc1` is > 80 µM (inactive). The figure for `Cc1c(CCO)c(=O)oc2n[nH]c(-c3ccccc3)c12` is > 80 µM (inactive); for `COc1ccc(C(=O)Nc2cccc(NC(=O)c3ccc(OC)c(OC)c3)n2)cc1OC` it is 15.4 µM. For the molecule `CCN(C(=O)CN1C(=O)NC(c2ccccc2)(c2ccc(C)c(C)c2)C1=O)C1CCCCC1` (configuration not stated), the IC50 is 26.6 µM (inactive). The figure for `CC1Cc2ccccc2N1S(=O)(=O)c1cnc(Cl)c(Br)c1` (configuration not stated) is 41.6 µM (inactive). `Cc1nc([N+](=O)[O-])c(Sc2nc3ccc([N+](=O)[O-])cc3[nH]2)n1Cc1ccccc1`: the IC50 was 47.5 µM (inactive). The figure for `N#CC1=C(N)Oc2cc(Nc3ccccc3)ccc2C1c1ccncc1` (configuration not stated) is 6.15 µM; for `Cn1c(=O)cc(OCCCC(=O)NCc2ccccn2)c2ccccc21` it is > 80 µM (inactive); for `COc1ccc(C(=O)n2nc(-c3ccc(Cl)cc3)nc2N)cc1OC` it is > 80 µM (inactive).
